From PMC9045377, “CpxA Phosphatase Inhibitor Activates CpxRA and Is a Potential Treatment for Uropathogenic Escherichia coli in a Murine Model of Infection” (Microbiology Spectrum, 2022) come the findings set out here.

SMILES strings stand for the structures.

For the experiment, the system named is CpxR-P. Description: CpxR-P accumulation in CFT073 cultured in human urine (Phos-Tag gel, Western blot, densitometry). The following applies: 150 μM, 5 h, 4 experiments. The format is cell-based, Escherichia coli. The method, then: To examine whether treatment with compound 26 fostered higher accumulation of CpxR-P in CFT073 than in untreated CFT073 or CFT073ΔcpxA::cat, we cultured CFT073 in human urine in the presence of 150 μM compound 26 dissolved in DMSO, and CFT073 and CFT073ΔcpxA::cat in the presence of DMSO alone (hereafter called the CFT073 and CFT073ΔcpxA::cat controls); we chose 150 μM, as this was the approximate trough concentration of compound 6 detected in murine urine after 3 days of treatment. Briefly, the bacteria were grown in LB medium overnight, pelleted, washed, and inoculated into human urine and allowed to grow for 5 h. […] We harvested bacterial cells, made cell lysates, and detected CpxR and CpxR-P by Western blotting with an anti-MBP-CpxR antiserum as described ([31]). […] To compare the samples, the CpxR and CpxR-P bands were quantified by densitometry using samples from 4 of the independent experiments. […]
E. coli CFT073 and CFT073ΔcpxA::cat were cultured overnight at 37°C in 5 mL of LB medium overnight with shaking. […] Densitometry values were determined using Photoshop 2021 (version 22.4.3), and the ratio of CpxR-P to CpxR was analyzed by one-way ANOVA adjusted for multiple comparisons using the Tukey procedure.
(In general: Immunoblotting shows a protein as a band on a membrane.)

Regarding `N[C@@H]1CCCc2c1[nH]c1cc(F)c(F)cc21` [compound 26], the “increase of the ratio of CpxR-P to CpxR vs CFT073 control” value amounted to 1.3 fold and the “increase of the ratio of CpxR-P to CpxR vs CFT073ΔcpxA::cat control” value turned out to be 1.4 fold.
